We go through one compound from patent publication US20210299022A1, “COMPOSITION FOR THE TREATMENT OF NAIL FUNGUS” (Oystershell NV, priority 2020, published 2021).

Data set [1] in a line: stability of optical brightener in the composition. It is filed as physicochemical. Conditions: in composition of example 1. From the text: FWA-184, also known as OB-184 or 2,5′-Bis[2-(5-tert-buty 1-2 benzoxazoly)thiophene is an optical brightener known for polymers, paints and detergents. It's suitable for use in polymers which come into contact with keratinous tissue and skin. Furthermore, it is stable in the present composition. […] It is important that the film-forming polymer is transparent to both visible ranges as well as the wavelengths which are absorbed by the fluorescent whitening agent.

Data set [2] is described as follows: tolerance of fluorescent whitening agent upon nails. It is filed as in vivo. The following applies: applied upon nails. From the text:
In a preferred embodiment, the composition according to the invention includes 2,5-bis(5-tert-butyl-benzoxazol-2-yl)thiophene as fluorescent whitening agent. 2,5-bis(5-tert-butyl-benzoxazol-2-yl)thiophene is known as FWA-184 and has CAS No: [7128-64-5].

As for `CC(C)(C)c1ccc2oc(-c3ccc(-c4nc5cc(C(C)(C)C)ccc5o4)s3)nc2c1` [FWA-184, 2,5-bis(5-tert-butyl-benzoxazol-2-yl)thiophene], in data set [1], the “stability in the present composition” value is “stable”. Further, the tolerance upon nails result in data set [2] is recorded as “well tolerated”.
